Experimental data taken from patent publication US20060052396A1, “Arylamines for the treatment of conditions associated with gsk-3” (priority 2001, published 2006).

melting point: 221.5 to 223 °C
Structure (SMILES): CN(C)S(=O)(=O)c1ccccc1-c1cnc(N)c(C(=O)Nc2cccnc2)n1 [Example 235, 3-Amino-6-{2-[(dimethylamino)sulfonyl]phenyl}-N-pyridin-3-ylpyrazine-2-carboxamide]
